Reference: patent US9809697B2, “Crosslinking agent, crosslinked polymer, and compound” (THE NIPPON SYNTHETIC CHEMICAL INDUSTRY CO., LTD., priority 2013, dated 2017)

Test: Solubility in water
Format: physicochemical
Details: solubility in 100 g of water at 23° C.
Protocol: The white solid obtained above was examined for solubility in 100 g of water at 23° C.

Crosslinking agent Solubility [g] | Structure (SMILES)
12.5 | NNC(=O)CCCCC(=O)NN [ADH, adipic acid dihydrazide]
150 | CN(N)C(=O)CCCCC(=O)N(C)N [formula (4)]
